This is an account of results in patent US10752587B2, “Homobispiperidinyl derivatives as liver X receptor beta agonists, compositions and their use” (Merck Sharp & Dohme Corp., priority 2015, dated 2020).

Read-outs that look alike come from different tables or passages of the source.

The target in experiment [1] is T1, glutathione-S-transferase (GST) tagged LXRbeta LBD (ligand binding domain) (Homo sapiens, UniProt P55055).
T1 construct: purchased Invitrogen pv4658.pps
T1 sequence (P55055 222-460 limits assumed): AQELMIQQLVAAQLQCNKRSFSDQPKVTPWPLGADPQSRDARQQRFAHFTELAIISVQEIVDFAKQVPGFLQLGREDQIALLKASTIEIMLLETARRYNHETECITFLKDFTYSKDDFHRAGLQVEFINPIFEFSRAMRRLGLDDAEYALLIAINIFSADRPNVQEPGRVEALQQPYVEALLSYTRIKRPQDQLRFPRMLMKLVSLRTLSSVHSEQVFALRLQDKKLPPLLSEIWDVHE
Kind of experiment: LanthaScreen TR-FRET Liver X Receptor Coactivator Assay, co-activator recruitment to LXRbeta LBD. The class given is biochemical. Conditions: for Emax: read-out: LXR beta Activity @ max dose (%); for EC50: potency (Inflection Point, IP), co-activator recruitment to LXRbeta LBD, in relation to T0901317. The method, boiled down:
(§1)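 TR-FRET coactivator recruitment; compound + LBD, then fluorescein-coactivator peptide/Tb-anti-GST Ab mix; RT incubation; IP and Emax vs T0901317.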
(In general: TR-FRET usually uses a lanthanide donor and a delayed reading to cut background.)

Experiment [2] deals with T2, glutathione-S-transferase (GST) tagged LXRalpha LBD (ligand binding domain) (Homo sapiens, UniProt Q13133).
T2 construct: purchased Invitrogen pv4655
T2 sequence (Q13133 209-447 limits assumed): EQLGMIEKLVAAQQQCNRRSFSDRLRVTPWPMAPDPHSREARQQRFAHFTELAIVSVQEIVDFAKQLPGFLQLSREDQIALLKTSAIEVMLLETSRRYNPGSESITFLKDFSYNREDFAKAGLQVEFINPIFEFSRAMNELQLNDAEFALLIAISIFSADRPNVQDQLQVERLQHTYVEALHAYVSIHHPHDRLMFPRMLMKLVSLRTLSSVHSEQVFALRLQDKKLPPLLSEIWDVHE
The experiment can be described thus: LanthaScreen TR-FRET Liver X Receptor Coactivator Assay, co-activator recruitment to LXRalpha LBD. Conditions: for Emax: read-out: LXR alpha Activity @ max dose (%); for EC50 / LXR alpha IP (nM): potency (Inflection Point, IP), co-activator recruitment to LXRalpha LBD, in relation to T0901317; for EC50: read-out: LXR alpha IP. The class given is biochemical. The method, boiled down: as §1

The mark [3] stands for this setting: efficacy at max dose, in relation to reference dual agonist T0901317.

On to `COc1cccc([C@@](O)(C(=O)N2CCC(CC3CCN(c4ccc(C(=O)N(C)C)c(Cl)c4)CC3)CC2)C(F)(F)C(F)(F)F)c1` [Example 2-89, 2-chloro-N,N-dimethyl-4-[4-({1-[(2R)-3,3,4,4,4-pentafluoro-2-hydroxy-2-{3-methoxyphenyl)butanoyl]piperidin-4-yl}methyl)piperidin-1-yl]benzamide], for which the Emax was 83% in experiment [1] (setting [3]) and 23% in experiment [2] (setting [3]). Moreover, the figures for the EC50 in experiment [1] (read-out: LXR beta IP) and in experiment [2] were 21 nM and 304 nM, respectively.

Take `CN(C)C(=O)c1ccc(N2CCC(CC3CCN(C(=O)C(O)(c4cccnc4)C(F)(F)F)CC3)CC2)cc1Cl` (centres unmarked) [Example 2-90, 2-chloro-N,N-dimethyl-4-(4-{[1-(3,3,3-trifluoro-2-hydroxy-2-pyridin-3-ylpropanoyl)piperidin-4-yl]methyl}piperidin-1-yl)benzamide]: the Emax worked out at 99% in experiment [1] (setting [3]) and 46% in experiment [2] (setting [3]). Further, the EC50 came to 78 nM in experiment [1] (read-out: LXR beta IP) and 3550 nM in experiment [2].

On to `CN(C)C(=O)c1ccc(N2CCC(CC3CCN(C(=O)[C@](O)(c4cccc(OC(F)(F)F)c4)C(F)(F)F)CC3)CC2)cc1Cl` [Example 2-91, 2-chloro-N,N-dimethyl-4-{4-[(1-{(2R)-3,3,3-trifluoro-2-hydroxy-2-[3-(trifluoro-methoxy)phenyl]propanoyl}piperidin-4-yl)methyl]piperidin-1-yl}benzamide], for which the Emax came to 58% in experiment [1] (setting [3]) and 20% in experiment [2] (setting [3]). In addition, the EC50 in experiment [1] (read-out: LXR beta IP) amounted to 23 nM; in experiment [2] it was 199 nM.

For `CCOc1cccc([C@@](O)(C(=O)N2CCC(CC3CCN(c4ccc(C(=O)N(C)C)c(Cl)c4)CC3)CC2)C(F)(F)F)c1` [Example 2-92, 2-chloro-4-[4-({1-[(2R)-2-(3-ethoxyphenyl)-3,3,3-trifluoro-2-hydroxy-propanoyl]piperidin-4-yl}methyl)piperidin-1-yl]-N,N-dimethyl-benzamide], the Emax in experiment [1] (setting [3]) was determined as 56%; in experiment [2] (setting [3]) it was 3%. In experiment [1] (read-out: LXR beta IP), the EC50 was 12 nM. Further, the “LXR alpha IP (nM)” value in experiment [2] is on record as “NO IP”.

Consider `CN(C)C(=O)c1ccc(N2CCC(CC3CCN(C(=O)[C@](O)(c4cc(Cl)cc(Cl)c4)C(F)(F)F)CC3)CC2)cc1Cl` [Example 2-93, 2-chloro-4-[4-({1-[(2R)-2-(3,5-dichloro-phenyl)-3,3,3-trifluoro-2-hydroxy-propanoyl]piperidin-4-yl}methyl)piperidin-1-yl]-N,N-dimethyl-benzamide], for which the results for the Emax in experiment [1] (setting [3]) and in experiment [2] (setting [3]) were 59% and 7%, respectively. For the same compound, the EC50 in experiment [1] (read-out: LXR beta IP) came out at 5 nM. In addition, in experiment [2], the “LXR alpha IP (nM)” value was “NO IP”.

`CN(C)C(=O)c1ccc(N2CCC(CC3CCN(C(=O)[C@](O)(c4cc(F)cc(F)c4)C(F)(F)F)CC3)CC2)cc1Cl` [Example 2-94, 2-chloro-4-[4-({1-[(2R)-2-(3,5-difluoro-phenyl)-3,3,3-trifluoro-2-hydroxy-propanoyl]piperidin-4-yl}methyl)piperidin-1-yl]-N,N-dimethyl-benzamide]: the Emax in experiment [1] (setting [3]) was 89%; in experiment [2] (setting [3]) it was 48%. In addition, the values for the EC50 in experiment [1] (read-out: LXR beta IP) and in experiment [2] were 4 nM and 50 nM, respectively.

Regarding `CC(C)c1cccc([C@@](O)(C(=O)N2CCC(CC3CCN(c4ccc(C(=O)N(C)C)c(Cl)c4)CC3)CC2)C(F)(F)F)c1` [Example 2-95, 2-chloro-N,N-dimethyl-4-{4-[(1-{(2R)-3,3,3-trifluoro-2-hydroxy-2-[3-(1-methylethyl)phenyl]propanoyl}piperidin-4-yl)methyl]piperidin-1-yl}benzamide], the Emax in experiment [1] (setting [3]) was 50%; in experiment [2] (setting [3]), 15%. For the same compound, the EC50 worked out at 6 nM in experiment [1] (read-out: LXR beta IP) and 341 nM in experiment [2].

`CN(C)C(=O)c1ccc(N2CCC(CC3CCN(C(=O)[C@](O)(c4cccc(C5CC5)c4)C(F)(F)F)CC3)CC2)cc1Cl` [Example 2-96, 2-chloro-4-[4-({1-[(2R)-2-(3-cyclopropyl-phenyl)-3,3,3-trifluoro-2-hydroxy-propanoyl]piperidin-4-yl}methyl)piperidin-1-yl]-N,N-dimethyl-benzamide]: the Emax in experiment [1] (setting [3]) came to 63%; in experiment [2] (setting [3]) it was 20%. The EC50 in experiment [1] (read-out: LXR beta IP) turned out to be 4 nM; in experiment [2] it was 66 nM.

In the case of `CN(C)C(=O)c1ccc(N2CCC(CC3CCN(C(=O)[C@](O)(c4cccc(OCC(F)(F)F)c4)C(F)(F)F)CC3)CC2)cc1Cl` [Example 2-97, 2-chloro-N,N-dimethyl-4-{4-[(1-{(2R)-3,3,3-trifluoro-2-hydroxy-2-[3-(2,2,2-trifluoroethoxy)phenyl]propanoyl}piperidin-4-yl)methyl]piperidin-1-yl}benzamide], the figures for the Emax in experiment [1] (setting [3]) and in experiment [2] (setting [3]) were 20% and 0%, respectively. Moreover, the EC50 in experiment [1] (read-out: LXR beta IP) amounted to 40 nM. For the same compound, the “LXR alpha IP (nM)” value in experiment [2] was “NO IP”.

As for `CN(C)C(=O)c1ccc(N2CCC(CC3CCN(C(=O)[C@](O)(c4cccc(N(C)C)c4)C(F)(F)F)CC3)CC2)cc1Cl` [Example 2-98], the figures for the Emax in experiment [1] (setting [3]) and in experiment [2] (setting [3]) were 20% and 0%, respectively. The EC50 in experiment [1] (read-out: LXR beta IP) was 8 nM. For the same compound, the “LXR alpha IP (nM)” value in experiment [2] was “NO IP”.

For `CN(C)C(=O)c1ccc(N2CCC(CC3CCN(C(=O)[C@](O)(c4cccc(OC5CC5)c4)C(F)(F)F)CC3)CC2)cc1Cl` [Example 2-99, 2-chloro-4-{4-[(1-{(2R)-2-[3-(cyclopropyloxy)phenyl]-3,3,3-trifluoro-2-hydroxy-propanoyl}piperidin-4-yl)methyl]piperidin-1-yl}-N,N-dimethyl-benzamide], the Emax in experiment [1] (setting [3]) was 37%; in experiment [2] (setting [3]) it was 0%. In addition, the EC50 in experiment [1] (read-out: LXR beta IP) was 8 nM. Besides, in experiment [2], the “LXR alpha IP (nM)” value was “NO IP”.

For the compound `COc1cc(Cl)cc([C@@](O)(C(=O)N2CCC(CC3CCN(c4ccc(C(=O)N(C)C)c(Cl)c4)CC3)CC2)C(F)(F)F)c1` [Example 2-100, 2-chloro-4-[4-({1-[(2R)-2-(3-chloro-5-methoxy-phenyl)-3,3,3-trifluoro-2-hydroxy-propanoyl]piperidin-4-yl}methyl)piperidin-1-yl]-N,N-dimethyl-benzamide], the results for the Emax in experiment [1] (setting [3]) and in experiment [2] (setting [3]) were 24% and 0%, respectively. For the same compound, the EC50 in experiment [1] (read-out: LXR beta IP) was 6 nM. For the same compound, the “LXR alpha IP (nM)” value in experiment [2] is given as “NO IP”.

For the compound `CN(C)C(=O)c1ccc(N2CCC(CC3CCN(C(=O)[C@](O)(c4cc(F)cc(Cl)c4)C(F)(F)F)CC3)CC2)cc1Cl` [Example 2-102, 2-chloro-4-[4-({1-[(2R)-2-(3-chloro-5-fluorophenyl)-3,3,3-trifluoro-2-hydroxy-propanoyl]piperidin-4-yl}methyl)piperidin-1-yl]-N,N-dimethyl-benzamide], the Emax in experiment [1] (setting [3]) amounted to 81%; in experiment [2] (setting [3]), 36%. In addition, the EC50 in experiment [1] (read-out: LXR beta IP) worked out at 2 nM; in experiment [2], 29 nM.

For `COc1cccc([C@@](N)(C(=O)N2CCC(CC3CCN(c4ccc(C(=O)N(C)C)c(Cl)c4)CC3)CC2)C(F)(F)F)c1` [Example 2-103, 4-[4-({1-[(2R)-2-amino-3,3,3-trifluoro-2-(3-methoxyphenyl)propanoyl]piperidin-4-yl}methyl)piperidin-1-yl]-2-chloro-N,N-dimethyl-benzamide], the results for the Emax in experiment [1] (setting [3]) and in experiment [2] (setting [3]) were 16% and 0%, respectively. Further, the EC50 in experiment [1] (read-out: LXR beta IP) worked out at 181 nM. Further, in experiment [2], the “LXR alpha IP (nM)” value is “NO IP”.

`COc1cccc(C(=O)C(=O)N2CCC(CC3CCN(c4ccc(C(=O)N(C)C)c(Cl)c4)CC3)CC2)c1` [Example 2-104, 2-chloro-4-[4-({1-[(3-methoxyphenyl) (oxo)acetyl]piperidin-4-yl}methyl)piperidin-1-yl]-N,N-dimethyl-benzamide]: the Emax stood at 31% in experiment [1] (setting [3]) and 3% in experiment [2] (setting [3]). The EC50 in experiment [1] (read-out: LXR beta IP) is 409 nM. Further, the “LXR alpha IP (nM)” value in experiment [2] is “NO IP”.

Regarding `CN(C)C(=O)c1ccc(N2CCC(CC3CCN(C(=O)[C@](O)(c4ccccc4)C4CC4)CC3)CC2)cc1Cl` [Example 2-105, 2-chloro-4-[4-({1-[(2R)-2-cyclopropyl-2-hydroxy-2-phenylacetyl]piperidin-4-yl}methyl)piperidin-1-yl]-N,N-dimethyl-benzamide], in experiment [1] (LXR beta IP (nM)), the EC50 was determined as 21 nM. Besides, the results for the Emax in experiment [1] and in experiment [2] were 48% and 12%, respectively. In addition, the “LXR alpha IP (nM)” value in experiment [2] is listed as “NO IP”.

Take `COc1cccc([C@@](O)(C(=O)N2CCC(CC3CCN(c4ccc(C(=O)N(C)C)c(Cl)c4)CC3)CC2)C(F)F)c1` [Example 2-106, 2-chloro-4-[4-({1-[(2R)-3,3-difluoro-2-hydroxy-2-(3-methoxy-phenyl)propanoyl]piperidin-4-yl}methyl)piperidin-1-yl]-N,N-dimethyl-benzamide]: the Emax in experiment [1] (setting [3]) is 19%; in experiment [2] (setting [3]), 0%. In addition, the EC50 in experiment [1] (read-out: LXR beta IP) is 10 nM. Moreover, the “LXR alpha IP (nM)” value in experiment [2] is listed as “NO IP”.
